Measurements: patent publication US11020399B2, “Intermediates useful in the synthesis of compounds as modulators of protein kinases” (Rhizen Pharmaceuticals SA, priority 2011, dated 2021)

Legend:
Assay type in all cases: biochemical
PI3kα = PI3kα (Homo sapiens, UniProt P42336); test: Fluorescent (HTRF) determination of PI3 kinase enzyme activity, PI3Kα
Text: (§1) Assay 1: Fluorescent Determination of PI3Kinase Kinase Enzyme Activity
(§2) Phosphoinositide 3 kinases (PI3K) belong to a class of lipid kinases that play a critical role in the regulation of several key cellular processes. The PI3K are capable of phosphorylating the 3-hydroxy position of phosphoinositols thereby generating second messengers involved in downstream signalling events. The homogenous time resolved fluorescence (HTRF) assay allows detection of 3,4,5-triphosphate (PIP3) formed as a result of phosphorylation of phosphotidylinositol 4,5-biphosphate (PIP2) by PI3K isoforms such as α, β, γ or δ. PI3K isoform activity for a, p, y or 8 was determined using a PI3K human HTRF™ Assay Kit (Millipore, Billerica, Mass.) with modifications. All incubations were carried out at room temperature. Briefly, 0.5 μl of 40× inhibitor (in 100% DMSO) or 100% DMSO were added to each well of a 384-well black plate (Greiner Bio-One, Monroe, N.C.) containing 14.5 μl IX reaction buffer /PIP2 (10 mM MgCl2, 5 mM DTT, 1.38 μM PIP2) mix with or without enzyme and incubated for 10 min. After the initial incubation, 5 μl/well of 400 μM ATP was added and incubated for an additional 30 minutes. Reaction was terminated by adding 5 μl/well stop solution (Millipore, Billerica, Mass.). Five microliters of detection mix (Millipore, Billerica, Mass.) were then added to each well and was incubated for 6-18 h in the dark. HRTF ratio was measured on a microplate reader (BMG Labtech., Germany) at an excitation wavelength of 337 nm and emission wavelengths of 665 and 620 nm with an integration time of 400 μsec.
(§3) Data were analyzed using Graphpad Prism (Graphpad software; San Diego Calif.) for IC50 determination. Examples 1-59 were tested at 1 uM for Pi3kα & Pi3k β and at 0.3 uM for γ and δ. Examples 60-137 were tested at 1 uM for Pi3kα & Pi3k β and at 0.1 uM for γ and δ. Percent inhibition was calculated based on the values for the blank and enzyme controls. The results are as provided in Table 2 (wherein D=0 to 25%; C=>25 to 50%; B=>50 to 75%; A=>75 to 100%; +++++=≤50 nM; ++++=>50 to ≤100 nM; +++=>100 to ≤300 nM; ++=>300 to ≤500 nM; +=>500 nM)

PI3kβ = PI3kβ (Homo sapiens, UniProt P42338); test: Fluorescent (HTRF) determination of PI3 kinase enzyme activity, PI3Kβ
Chain of PI3kβ (P42338 whole entry): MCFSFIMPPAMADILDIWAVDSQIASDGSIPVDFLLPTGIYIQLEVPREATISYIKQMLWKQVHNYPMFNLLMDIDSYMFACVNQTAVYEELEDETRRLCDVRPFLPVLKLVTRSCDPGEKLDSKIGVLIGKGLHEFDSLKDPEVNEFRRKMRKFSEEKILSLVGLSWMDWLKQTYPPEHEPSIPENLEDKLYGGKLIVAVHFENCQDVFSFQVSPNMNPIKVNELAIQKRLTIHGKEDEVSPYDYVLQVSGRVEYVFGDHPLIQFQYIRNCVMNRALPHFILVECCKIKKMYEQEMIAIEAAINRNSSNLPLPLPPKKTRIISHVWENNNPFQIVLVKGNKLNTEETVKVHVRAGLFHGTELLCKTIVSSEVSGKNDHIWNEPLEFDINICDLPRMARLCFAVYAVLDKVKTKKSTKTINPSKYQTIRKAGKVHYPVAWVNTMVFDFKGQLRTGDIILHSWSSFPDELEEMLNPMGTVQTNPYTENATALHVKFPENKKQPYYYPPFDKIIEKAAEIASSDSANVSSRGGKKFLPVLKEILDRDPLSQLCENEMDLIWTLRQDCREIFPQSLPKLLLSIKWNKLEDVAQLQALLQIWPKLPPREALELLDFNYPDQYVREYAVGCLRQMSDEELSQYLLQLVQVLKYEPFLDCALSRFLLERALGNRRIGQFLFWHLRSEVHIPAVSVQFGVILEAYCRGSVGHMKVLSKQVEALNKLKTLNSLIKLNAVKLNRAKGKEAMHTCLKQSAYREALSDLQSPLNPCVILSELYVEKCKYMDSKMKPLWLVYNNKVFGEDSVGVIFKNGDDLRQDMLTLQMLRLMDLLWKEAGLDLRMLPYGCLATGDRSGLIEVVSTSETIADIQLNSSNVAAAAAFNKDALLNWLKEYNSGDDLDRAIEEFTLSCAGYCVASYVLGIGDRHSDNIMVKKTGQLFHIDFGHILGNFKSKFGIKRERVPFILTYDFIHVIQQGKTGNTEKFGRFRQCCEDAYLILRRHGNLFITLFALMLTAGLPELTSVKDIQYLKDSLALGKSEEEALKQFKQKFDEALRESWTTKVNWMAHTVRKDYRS
Chain of PI3kβ (P27986 whole entry partner): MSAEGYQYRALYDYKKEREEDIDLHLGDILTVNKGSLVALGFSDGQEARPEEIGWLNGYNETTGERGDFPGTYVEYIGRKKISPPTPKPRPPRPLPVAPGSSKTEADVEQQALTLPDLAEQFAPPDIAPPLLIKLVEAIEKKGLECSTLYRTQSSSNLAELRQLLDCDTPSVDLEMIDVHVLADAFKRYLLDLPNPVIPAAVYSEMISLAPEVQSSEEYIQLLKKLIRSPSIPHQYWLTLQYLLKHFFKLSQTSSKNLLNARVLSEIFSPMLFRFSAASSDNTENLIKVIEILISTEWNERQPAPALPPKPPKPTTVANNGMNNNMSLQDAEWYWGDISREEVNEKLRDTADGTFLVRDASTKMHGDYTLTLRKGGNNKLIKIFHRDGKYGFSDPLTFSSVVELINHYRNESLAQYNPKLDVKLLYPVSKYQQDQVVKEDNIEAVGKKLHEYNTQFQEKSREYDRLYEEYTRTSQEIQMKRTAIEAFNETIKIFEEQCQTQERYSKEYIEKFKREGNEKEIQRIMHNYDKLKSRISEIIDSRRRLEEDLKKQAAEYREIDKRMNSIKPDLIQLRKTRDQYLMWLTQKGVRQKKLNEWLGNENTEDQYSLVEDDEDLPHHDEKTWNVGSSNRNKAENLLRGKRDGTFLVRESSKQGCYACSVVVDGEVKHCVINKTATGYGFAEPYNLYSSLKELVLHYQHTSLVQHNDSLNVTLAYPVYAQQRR
Text: as §1, §2, §3

PI3kγ = PI3kγ (Homo sapiens, UniProt P48736); test: Fluorescent (HTRF) determination of PI3 kinase enzyme activity, PI3Kγ; settings: for inhibition at 0.1 µM / % inhibition (PI3kγ) 100 nM: 100 nM (Examples 60-137); for % inhibition (PI3kγ) 100 nM: 0.1 µM; for inhibition at 0.3 µM: 300 nM (Examples 1-59)
Chain of PI3kγ (P48736 whole entry): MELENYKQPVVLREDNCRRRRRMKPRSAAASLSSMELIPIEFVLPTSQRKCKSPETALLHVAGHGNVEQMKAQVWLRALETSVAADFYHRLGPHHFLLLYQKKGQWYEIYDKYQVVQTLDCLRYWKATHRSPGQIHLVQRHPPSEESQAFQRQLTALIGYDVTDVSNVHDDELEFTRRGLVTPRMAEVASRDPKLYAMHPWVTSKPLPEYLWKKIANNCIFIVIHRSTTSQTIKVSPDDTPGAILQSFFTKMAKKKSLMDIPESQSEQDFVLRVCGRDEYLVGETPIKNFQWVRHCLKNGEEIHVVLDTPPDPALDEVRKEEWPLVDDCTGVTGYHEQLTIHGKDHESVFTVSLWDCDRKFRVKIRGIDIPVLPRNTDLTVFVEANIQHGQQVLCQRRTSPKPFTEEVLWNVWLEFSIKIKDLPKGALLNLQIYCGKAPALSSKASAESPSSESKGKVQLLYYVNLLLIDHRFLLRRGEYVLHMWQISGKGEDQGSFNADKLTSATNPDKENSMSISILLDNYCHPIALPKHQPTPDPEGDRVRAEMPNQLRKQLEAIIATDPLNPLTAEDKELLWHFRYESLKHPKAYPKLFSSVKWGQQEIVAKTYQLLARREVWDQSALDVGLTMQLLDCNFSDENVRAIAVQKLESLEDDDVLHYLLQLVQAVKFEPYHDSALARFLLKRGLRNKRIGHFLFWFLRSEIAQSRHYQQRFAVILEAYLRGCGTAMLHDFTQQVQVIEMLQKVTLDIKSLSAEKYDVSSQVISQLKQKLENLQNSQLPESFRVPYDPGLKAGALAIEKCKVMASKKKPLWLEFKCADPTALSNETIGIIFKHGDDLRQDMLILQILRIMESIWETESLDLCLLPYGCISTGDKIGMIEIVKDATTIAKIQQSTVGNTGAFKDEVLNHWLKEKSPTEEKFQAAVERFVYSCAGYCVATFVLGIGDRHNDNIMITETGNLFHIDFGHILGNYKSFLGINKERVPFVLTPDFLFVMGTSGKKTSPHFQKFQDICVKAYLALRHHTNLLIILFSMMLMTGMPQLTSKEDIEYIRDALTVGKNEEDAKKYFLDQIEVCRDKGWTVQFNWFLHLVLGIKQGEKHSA
Text: as §1, §2, §3

PI3kδ = PI3kδ (Homo sapiens, UniProt O00329); test: Fluorescent (HTRF) determination of PI3 kinase enzyme activity, PI3Kδ; settings: for inhibition at 0.1 µM / % inhibition (PI3kδ) 100 nM: 100 nM (Examples 60-137); for inhibition at 0.3 µM: 300 nM (Examples 1-59)
Chain of PI3kδ (O00329 whole entry): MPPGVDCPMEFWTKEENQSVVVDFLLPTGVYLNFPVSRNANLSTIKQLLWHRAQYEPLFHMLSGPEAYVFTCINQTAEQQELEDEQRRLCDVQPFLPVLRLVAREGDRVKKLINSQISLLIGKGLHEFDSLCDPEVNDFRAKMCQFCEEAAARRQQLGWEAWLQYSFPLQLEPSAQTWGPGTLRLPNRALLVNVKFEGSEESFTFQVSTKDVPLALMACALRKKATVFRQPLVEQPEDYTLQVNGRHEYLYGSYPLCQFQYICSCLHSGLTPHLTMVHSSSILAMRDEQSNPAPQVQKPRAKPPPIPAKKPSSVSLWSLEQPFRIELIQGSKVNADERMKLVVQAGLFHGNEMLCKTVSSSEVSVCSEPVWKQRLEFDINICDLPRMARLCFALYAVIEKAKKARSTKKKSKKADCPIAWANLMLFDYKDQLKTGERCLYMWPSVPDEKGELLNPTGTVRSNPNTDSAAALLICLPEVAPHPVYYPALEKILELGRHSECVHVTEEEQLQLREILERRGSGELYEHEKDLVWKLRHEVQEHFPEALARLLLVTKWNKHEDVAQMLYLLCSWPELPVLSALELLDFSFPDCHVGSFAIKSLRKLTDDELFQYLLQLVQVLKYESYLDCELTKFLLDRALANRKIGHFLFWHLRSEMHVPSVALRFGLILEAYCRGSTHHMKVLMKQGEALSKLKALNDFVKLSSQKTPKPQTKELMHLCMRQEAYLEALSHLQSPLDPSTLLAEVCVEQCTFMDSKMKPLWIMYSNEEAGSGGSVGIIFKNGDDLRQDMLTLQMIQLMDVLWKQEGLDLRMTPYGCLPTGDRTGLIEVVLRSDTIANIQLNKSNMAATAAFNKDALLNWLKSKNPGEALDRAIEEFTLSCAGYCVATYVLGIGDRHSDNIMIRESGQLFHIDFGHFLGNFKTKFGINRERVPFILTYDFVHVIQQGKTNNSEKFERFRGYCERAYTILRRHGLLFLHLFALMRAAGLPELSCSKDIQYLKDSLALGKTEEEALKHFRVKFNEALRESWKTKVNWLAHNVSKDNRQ
Chain of PI3kδ (P27986 whole entry partner): as the sequence (P27986 whole entry partner) above
Text: as §1, §2, §3

Chain of PI3kα (P42336 whole entry): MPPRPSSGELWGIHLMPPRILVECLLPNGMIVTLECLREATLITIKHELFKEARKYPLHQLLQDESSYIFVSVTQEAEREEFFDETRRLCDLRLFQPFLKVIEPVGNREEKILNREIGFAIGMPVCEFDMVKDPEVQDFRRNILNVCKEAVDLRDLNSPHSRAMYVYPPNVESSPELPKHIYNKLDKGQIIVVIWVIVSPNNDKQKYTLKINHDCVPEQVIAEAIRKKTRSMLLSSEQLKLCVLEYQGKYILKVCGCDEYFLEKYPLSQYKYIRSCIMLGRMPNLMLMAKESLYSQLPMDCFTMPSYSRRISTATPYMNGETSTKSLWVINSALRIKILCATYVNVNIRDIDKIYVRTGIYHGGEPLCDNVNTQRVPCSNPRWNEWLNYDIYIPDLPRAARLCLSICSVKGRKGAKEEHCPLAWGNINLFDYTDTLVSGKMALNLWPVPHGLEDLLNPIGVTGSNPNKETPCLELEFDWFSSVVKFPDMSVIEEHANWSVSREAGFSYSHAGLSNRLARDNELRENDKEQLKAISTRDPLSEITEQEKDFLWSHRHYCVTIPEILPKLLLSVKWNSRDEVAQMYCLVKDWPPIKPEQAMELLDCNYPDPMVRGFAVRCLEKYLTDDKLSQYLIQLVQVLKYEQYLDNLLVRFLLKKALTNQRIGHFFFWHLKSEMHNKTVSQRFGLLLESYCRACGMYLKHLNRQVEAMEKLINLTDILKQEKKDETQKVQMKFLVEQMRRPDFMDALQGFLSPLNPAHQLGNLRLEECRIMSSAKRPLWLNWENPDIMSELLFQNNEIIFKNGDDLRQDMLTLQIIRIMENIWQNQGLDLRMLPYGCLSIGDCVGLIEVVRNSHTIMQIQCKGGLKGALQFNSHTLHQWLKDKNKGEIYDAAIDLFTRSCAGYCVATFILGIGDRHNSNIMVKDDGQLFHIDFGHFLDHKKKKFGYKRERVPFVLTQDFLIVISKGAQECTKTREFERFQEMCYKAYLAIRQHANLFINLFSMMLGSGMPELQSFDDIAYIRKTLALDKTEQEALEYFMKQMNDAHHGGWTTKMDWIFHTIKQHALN
Chain of PI3kα (P27986 whole entry partner): as the sequence (P27986 whole entry partner) above

Row | Structure (SMILES) | % inhibition (PI3kα) 1 uM (PI3kα) | inhibition at 1 µM (PI3kβ) | IC50 (PI3kγ) | IC50 (PI3kδ) | inhibition at 1 µM (PI3kα) | inhibition at 0.3 µM (PI3kγ) | also measured
1 | CC(C)Oc1ccc(-c2nn(C(C)c3oc4cccc(F)c4c(=O)c3-c3ccc(F)cc3)c3ncnc(N)c23)cc1F (racemic) [Example 94, (S)/(R)-2-(1-(4-amino-3-(3-fluoro-4-isopropoxyphenyl)-1H-pyrazolo[3,4-d]pyrimidin-1-yl)ethyl)-5-fluoro-3-(4-fluorophenyl)-4H-chromen-4-one] | C (C=>25 to 50%) | 25 to 50% | – | – | – | – | inhibition at 0.1 µM (PI3kγ): 25 to 50%; inhibition at 0.1 µM (PI3kδ): 25 to 50%
2 | CC(c1oc2cccc(F)c2c(=O)c1-c1ccccc1)n1nc(-c2ccc(OC(F)F)c(F)c2)c2c(N)ncnc21 (racemic) [Example 102, (S)/(R)-2-(1-(4-amino-3-(4-(difluoromethoxy)-3-fluorophenyl)-1H-pyrazolo[3,4-d]pyrimidin-1-yl)ethyl)-5-fluoro-3-phenyl-4H-chromen-4-one] | C (C=>25 to 50%) | 50 to 75% | – | – | – | – | inhibition at 0.1 µM (PI3kγ): 25 to 50%; inhibition at 0.1 µM (PI3kδ): 0 to 25%
3 | CC(c1oc2cccc(F)c2c(=O)c1-c1ccc(F)cc1)n1nc(-c2ccc(OC(F)F)c(F)c2)c2c(N)ncnc21 (single isomer, unassigned) [Example 97] | – | 25 to 50% | – | – | 25 to 50% | – | inhibition at 0.1 µM (PI3kγ): 25 to 50%; inhibition at 0.1 µM (PI3kδ): 25 to 50%
4 | CC(C)Oc1ccc(-c2nn(C(C)c3oc4cccc(F)c4c(=O)c3-c3cccc(F)c3)c3ncnc(N)c23)cc1F (single isomer, unassigned; (+)) [Example 7, (+)-2-(1-(4-amino-3-(3-fluoro-4-isopropoxyphenyl)-1H-pyrazolo[3,4-d]pyrimidin-1-yl)ethyl)-5-fluoro-3-(3-fluorophenyl)-4H-chromen-4-one] | C (C=>25 to 50%) | 50 to 75% | ≤ 50 nM | ≤ 50 nM | – | – | –
5 | Cc1cc(-c2nn(C(C)c3oc4cccc(F)c4c(=O)c3-c3cccc(F)c3)c3ncnc(N)c23)ccc1OC(C)C (single isomer, unassigned; (-)) [Example 115, (−) 2-(1-(4-amino-3-(4-isopropoxy-3-methylphenyl)-1H-pyrazolo[3,4-d]pyrimidin-1-yl)ethyl)-5-fluoro-3-(3-fluorophenyl)-4H-chromen-4-one] | C (C=>25 to 50%) | – | – | – | – | – | % inhibition (PI3kβ) 1 uM (PI3kβ): D (D=0 to 25%); % inhibition (PI3kγ) 100 nM (PI3kγ): C (C=>25 to 50%); % inhibition (PI3kδ) 100 nM (PI3kδ; 0.1 µM): C (C=>25 to 50%)
6 | CC(C)Oc1ccc(-c2nn(Cc3oc4cccc(F)c4c(=O)c3-c3cccc(F)c3)c3ncnc(N)c23)cc1F [Example 3, 2-((4-amino-3-(3-fluoro-4-isopropoxyphenyl)-1H-pyrazolo[3,4-d]pyrimidin-1-yl)methyl)-5-fluoro-3-(3-fluorophenyl)-4H-chromen-4-one] | – | 0 to 25% | 100 to 300 nM | 50 to 100 nM | 25 to 50% | 50 to 75% | inhibition at 0.3 µM (PI3kδ): 50 to 75%
7 | Cc1n[nH]c2cc(-c3nn([C@@H](C)c4oc5cccc(F)c5c(=O)c4-c4cccc(F)c4)c4ncnc(N)c34)ccc12 [Example 9a, (+)-2-(1-(4-amino-3-(3-methyl-1H-indazol-6-yl)-1H-pyrazolo[3,4-d]pyrimidin-1-yl)ethyl)-5-fluoro-3-(3-fluorophenyl)-4H-chromen-4-one] | – | 25 to 50% | ≤ 50 nM | ≤ 50 nM | 0 to 25% | – | –
8 | Cc1nc2cc(-c3nn(C(C)c4oc5cccc(F)c5c(=O)c4-c4cccc(F)c4)c4ncnc(N)c34)ccc2[nH]1 (centres unmarked) [Example 26, 2-(1-(4-amino-3-(2-methyl-1H-benzo[d]imidazol-5-yl)-1H-pyrazolo[3,4-d]pyrimidin-1-yl)ethyl)-5-fluoro-3-(3-fluorophenyl)-4H-chromen-4-one] | – | 25 to 50% | 50 to 100 nM | – | 0 to 25% | 75 to 100% | –

Now from value to compound, other results behind:

Row | % inhibition (PI3kα) 1 uM (PI3kα) | inhibition at 1 µM (PI3kβ) | IC50 (PI3kγ) | IC50 (PI3kδ) | inhibition at 1 µM (PI3kα) | inhibition at 0.3 µM (PI3kγ) | Structure (SMILES) | also measured
9 | B (B=>50 to 75%) | – | 50 to 100 nM | 100 to 300 nM | – | – | CC(C)Oc1ccc(-c2nn(C(C)c3oc4cccc(F)c4c(=O)c3-c3ccccc3)c3ncnc(N)c23)cc1F (racemic) [Example 100, (S)/(R)-2-(1-(4-amino-3-(3-fluoro-4-isopropoxyphenyl)-1H-pyrazolo[3,4-d]pyrimidin-1-yl)ethyl)-5-fluoro-3-phenyl-4H-chromen-4-one] | % inhibition (PI3kβ) 1 uM (PI3kβ): B (B=>50 to 75%); inhibition at 0.1 µM (PI3kγ): 50 to 75%; inhibition at 0.1 µM (PI3kδ): 25 to 50%
10 | D (D=0 to 25%) | – | – | – | – | – | CC(c1oc2cccc(F)c2c(=O)c1-c1cccc(F)c1)n1nc(-c2ccc(N3CCOCC3)c(Cl)c2)c2c(N)ncnc21 (racemic) [Example 126, (S)/(R)-2-(1-(4-amino-3-(3-chloro-4-morpholinophenyl)-1H-pyrazolo[3,4-d]pyrimidin-1-yl)ethyl)-5-fluoro-3-(3-fluorophenyl)-4H-chromen-4-one] | % inhibition (PI3kβ) 1 uM (PI3kβ): C (C=>25 to 50%); % inhibition (PI3kγ) 100 nM (PI3kγ): D (D=0 to 25%); % inhibition (PI3kδ) 100 nM (PI3kδ): B (B=>50 to 75%)
11 | – | 25 to 50% | 100 to 300 nM | – | 50 to 75% | – | CC(C)Oc1ccc(-c2nn(C(C)c3oc4cccc(F)c4c(=O)c3-c3ccccc3)c3ncnc(N)c23)cc1F (single isomer, unassigned) [Example 101] | inhibition at 0.1 µM (PI3kγ): 50 to 75%; inhibition at 0.1 µM (PI3kδ): 0 to 25%
12 | D (D=0 to 25%) | – | ≤ 50 nM | ≤ 50 nM | – | – | CC(C)Oc1ccc(-c2nn(C(C)c3oc4cccc(F)c4c(=O)c3-c3cccc(F)c3)c3ncnc(N)c23)cc1F (single isomer, unassigned; (-)) [Example 8, (−)-2-(1-(4-amino-3-(3-fluoro-4-isopropoxyphenyl)-1H-pyrazolo[3,4-d]pyrimidin-1-yl)ethyl)-5-fluoro-3-(3-fluorophenyl)-4H-chromen-4-one] | IC50 (PI3kβ): 300 to 500 nM; % inhibition (PI3kβ) 1 uM (PI3kβ): B (B=>50 to 75%)
13 | – | 25 to 50% | 50 to 100 nM | ≤ 50 nM | 0 to 25% | 75 to 100% | CC(C)Oc1ccc(-c2nn(C(C)c3oc4cccc(F)c4c(=O)c3-c3cccc(F)c3)c3ncnc(N)c23)cc1F (centres unmarked) [Example 6, 2-(1-(4-amino-3-(3-fluoro-4-isopropoxyphenyl)-1H-pyrazolo[3,4-d]pyrimidin-1-yl)ethyl)-5-fluoro-3-(3-fluorophenyl)-4H-chromen-4-one] | IC50 (PI3kα; numeric values): > 10000 nM; inhibition at 0.3 µM (PI3kδ): 75 to 100%
14 | – | 25 to 50% | 50 to 100 nM | ≤ 50 nM | 25 to 50% | 75 to 100% | Cc1n[nH]c2cc(-c3nn(C(C)c4oc5cccc(F)c5c(=O)c4-c4cccc(F)c4)c4ncnc(N)c34)ccc12 (centres unmarked) [Example 9, 2-(1-(4-amino-3-(3-methyl-1H-indazol-6-yl)-1H-pyrazolo[3,4-d]pyrimidin-1-yl)ethyl)-5-fluoro-3-(3-fluorophenyl)-4H-chromen-4-one] | inhibition at 0.3 µM (PI3kδ): 75 to 100%
15 | – | 25 to 50% | 300 to 500 nM | 300 to 500 nM | 0 to 25% | – | Cc1n[nH]c2cc(-c3nn([C@H](C)c4oc5cccc(F)c5c(=O)c4-c4cccc(F)c4)c4ncnc(N)c34)ccc12 [Example 9b, (−)-2-(1-(4-amino-3-(3-methyl-1H-indazol-6-yl)-1H-pyrazolo[3,4-d]pyrimidin-1-yl)ethyl)-5-fluoro-3-(3-fluorophenyl)-4H-chromen-4-one] | –
16 | – | 0 to 25% | 100 to 300 nM | – | 25 to 50% | 75 to 100% | CC(c1oc2cccc(F)c2c(=O)c1-c1cccc(F)c1)n1nc(-c2cn[nH]c2)c2c(N)ncnc21 (centres unmarked) [Example 10, 2-(1-(4-amino-3-(1H-pyrazol-4-yl)-1H-pyrazolo[3,4-d]pyrimidin-1-yl)ethyl)-5-fluoro-3-(3-fluorophenyl)-4H-chromen-4-one] | inhibition at 0.3 µM (PI3kδ): 25 to 50%
17 | – | 25 to 50% | ≤ 50 nM | – | 0 to 25% | 75 to 100% | CC(c1oc2cccc(F)c2c(=O)c1-c1cccc(F)c1)n1nc(-c2ccc(N3CCOCC3)c(F)c2)c2c(N)ncnc21 (centres unmarked) [Example 25, 2-(1-(4-amino-3-(3-fluoro-4-morpholinophenyl)-1H-pyrazolo[3,4-d]pyrimidin-1-yl)ethyl)-5-fluoro-3-(3-fluorophenyl)-4H-chromen-4-one] | –
